Assay results from patent US8592422B2, “Bicyclic triazole and pyrazole lactams as allosteric modulators of mGluR5 receptors” (Vanderbilt University, priority 2010, dated 2013).

System: male Sprague-Dawley rats
Test: Reversal of amphetamine-induced hyperlocomotion
Format: in vivo, rat
Conditions: oral gavage, doses per FIG. 4; amphetamine 1 mg/kg sc
Protocol: Locomotor activity was assessed as mean distance traveled (cm) in standard 16×16 photocell testing chambers measuring 43.2 cm (Length)×43.2 cm (Width)×30.5 cm (Height) (Med Associates, St. Albans, Vt.). Animals were habituated to individual activity chambers for at least 30 min prior to drug administration. Following administration of drug or vehicle, activity was recorded for a 90 minute time period. Data was expressed as the mean (±SEM) distance traveled recorded in 5 min intervals over the test period. The data was analyzed using repeated measures analysis of variance (ANOVA) followed by post-hoc testing using Dunnett's test, when appropriate. A difference was considered significant when p≦0.05. […]
The animals were habituated in Smart Open Field locomotor activity test chambers (Hamilton-Kinder, San Diego, Calif.) with 16×16 photobeams to automatically record locomotor activity for 30 min and then dosed with vehicle or test compound. […] At 60 min, all rats were injected subcutaneously with 1 mg/kg amphetamine or vehicle and then monitored for an additional 60 min. Animals are monitored for a total of 120 minutes. Data are expressed as changes in ambulation defined as total number of beam breaks per 5 min periods.
The data for the dose-response studies were analyzed by a between-group analysis of variance. […]

How did the “reversal of amphetamine-induced hyperlocomotion” value turn out when O=C1c2cc(COc3ccccc3)nn2CCN1c1ccc(F)cn1 was run?
The value was “reversal of amphetamine-induced hyperlocomotion”.
